We go through one molecule from patent US20250057813A1, “APOPTOSIS RELATED PROTEIN IN THE TGF-BETA SIGNALING PATHWAY (ARTS) MIMETIC COMPOUNDS, COMPOSITIONS, METHODS AND USES THEREOF IN INDUCTION OF APOPTOSIS” (Carmel-Haifa University Economic Corporation Ltd., priority 2022, published 2025).

Experiment [1] concerns MG-63 osteosarcoma cell line. Kind of experiment: Dose response of cell death with B3 relative to DMSO. To be noted: increasing doses of B3. The format is cell-based.
Experiment [2] has as its system MCF10AT1K (M2) cells. Kind of experiment: TUNEL assay in M2 cells in 3D BME system. The experiment is classed as cell-based, Human. To be noted: 40 μM, 24 h. The protocol: Cells were harvested from their growth plates using 0.25% trypsin EDTA. Collected cells were cultured in Cultrex® growth factor reduced Basement Membrane Extract (BME: Trevigen, Inc) as follows: An 8 chamber glass slide system (Lab-TEK® II, Naperville, IL) was coated with 60 μl BME [Barkan D. et al., Cancer Research (2008)](protein concentration between […]; thickness-1-2 mm). 5×10^3 cells per well were re-suspended in DMEM/F12 supplemented with 2.5% DHS and 2% BME and cultured on the coated slides. Slides were incubated at 37° C., 5% CO2 incubator. Cells were re-fed every 4 days. Cell morphology was monitored by light microscopy. Immunofluorescence images were captured by Nikon Al—R confocal laser scanning microscope (Haifa University, Haifa, Israel).
The cells were cultured as described above in 8 well chamber glass slides, fixed according to Barkan's immunofluorescence staining protocol and incubated for 1 hour with a mixture of TUNEL reaction mix according to the manufacturer's protocol (In Situ Cell death Detection Kit, TMR Red; Roche, Cat #12-156-792-910) covered with aluminum foil and placed in the 37° C., 5% CO2 incubator. Following incubation, slides were washed three times with PBS for 5 minutes each, and mounted with […] mounting medium with DAPI. DAPI stain was used to assess total cell number. […]

Experiment [3] has as its target BCL-2 (Homo sapiens, UniProt P10415). The experiment can be described thus: MST binding assay. To be noted: binding curve, dose response. The protocol:
Microscale thermophoresis (MST) binding assays were performed by CreLux, a WuXi AppTech company in Germany, using recombinant ARTS, XIAP, Bcl-2 and cIAP1 proteins. Specifically, for performing experiments with untagged XIAP, a fluorescent label (NT650) was covalently attached to the protein (Maleimide coupling). The labelling was performed in a buffer containing 50 mM HEPES pH 7.0, 150 mM NaCl and 0.005% Tween-20.

In experiment [4] the test system is HCT116 WT cells. The experiment can be described thus: Western blot analysis of HCT116 WT cells. The experiment is classed as cell-based. The protocol:
(§1) Cells were lysed in whole-cell extract buffer [25 mM HEPES, pH 7.7, […], 1.5 mM MgCl2, 0.2 mM EDTA, 0.1% Triton X-100, 100 μg/ml phenylmethylsulfonyl fluoride (PMSF) and protease inhibitor cocktail (Roche, 1:100 dilution)] and placed on ice for 30 min (vortexing once after 15 min). After 30 minutes, the samples were centrifuged at 13,000×g for 10 minutes at 4° C. The supernatants containing total protein were measured for protein concentration using Bio-Rad Protein Assay Dye Reagent Concentrate Kit. 40 to […] was separated by sodium dodecyl sulfate-polyacrylamide gel electrophoresis (SDS-PAGE) (12% or 7.5%), followed by transfer to a nitrocellulose membrane. The membranes were blocked with 5% (w/v) non-fat dried skimmed milk powder in PBS supplemented with 0.05% Tween-20 (PBS-T) for 1 h at RT. Next, primary antibodies were added at 4° C. overnight or for 2 h at room temperature. Membranes were then incubated with secondary antibody for 1 h at RT and washed three times for 15 min each with PBS-T. Western Bright ECL (Advansta) was added to the membrane for 30-60 s and analyzed using Image Quant LAS-4000 (GE Healthcare Life Sciences) and Image Quant LAS-4000 software (GE Healthcare Life Sciences).
(In general: A western blot detects proteins with antibodies after separation by electrophoresis.)

Experiment [5] concerns MEF cells. The experiment can be described thus: Western blot analysis of MEF cells (WT and XIAP KO). The format is cell-based, mouse. To be noted: 20 μM B3 for 2, 4, 6, 16 hours. The method, then:
as §1

Experiment [6] deals with p53 Ubiquitylation in HCT 116 WT. The experiment can be described thus: In vivo ubiquitylation assay of p53. The format is cell-based. To be noted: 20 μM B3, 5 h, with proteasome inhibitor. The method, then: (§2) All cells were transiently transfected with a Ub-HA (ubiquitin-tagged with HA) construct and treated with a proteasome inhibitor (Bortezomib or MG-132, at 20 μM for 6 h). after 1 h of proteasome inhibitor incubation, B3 (20 μM) or DMSO was added to the medium for an additional 5 h. After 6 h of Bortezomib/MG-132 along with 5 h of B3 treatments, the cells were harvested and lysed using RIPA buffer (Tris-HCl pH 7.5 50 mM, NaCl 150 mM, NP-40 (Igepal) 0.3%) containing protease inhibitor cocktail (Complete, Roche), 100 µg/ml PMSF, 5 mM N-ethylmaleimide, and 5 mM iodoacetamide to preserve ubiquitin chains. Following 15 min of centrifugation (10,000×g, 4° C.), the supernatant was transferred into a clean Eppendorf tube. A ubiquitination assay using immunoprecipitation with anti-p53 antibody (CS2524) (endogenous p53 was pulled down) was performed as described above with 1:500 antibody per 1000 μg protein. Poly-ubiquitylated forms of p53 were detected using an anti-p53 antibody (DO-1, sc-126).

Experiment [7] has as its system p53 Ubiquitylation in HCT 116 XIAP KO cells. Kind of experiment: In vivo ubiquitylation assay of p53. The format is cell-based. To be noted: 20 μM B3, XIAP KO cells. The protocol:
as §2

In experiment [8] the target is T1, p53 ubiquitylation by XIAP (Homo sapiens, UniProt P98170).
T1 construct: host or cells: bacteria (GST-XIAP)
The experiment can be described thus: In vitro ubiquitylation assay, recombinant GST-XIAP and p53. The experiment is classed as biochemical. The settings on record: 20 and 40 μM B3, 1 hour at 37C. The protocol: Bacterially expressed His-ARTS was purified using fast protein liquid chromatography (FPLC), and bacterially expressed GST-XIAP was purified using glutathione beads. P53 recombinant protein was purchased from R&D (cat #SP-450). Recombinant p53 and GST-XIAP were incubated. E1, UbcH5b, ubiquitin (Ub), and the appropriate E3 in conjugation buffer (20 mM Tris-Cl [pH 7.6], 100 mM KCl, 5 mM MgCl2, and 1 mM DTT) containing 2 mM ATP at 37C for 1 hour.

BCL-2, sequence (P10415 whole entry): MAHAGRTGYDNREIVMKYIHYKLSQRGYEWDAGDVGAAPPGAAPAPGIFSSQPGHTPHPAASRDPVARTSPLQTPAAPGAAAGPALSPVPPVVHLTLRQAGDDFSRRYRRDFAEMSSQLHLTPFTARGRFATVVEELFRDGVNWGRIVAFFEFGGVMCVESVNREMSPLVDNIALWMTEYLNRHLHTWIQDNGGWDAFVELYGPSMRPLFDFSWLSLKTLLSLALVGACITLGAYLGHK
T1 sequence (P98170 whole entry): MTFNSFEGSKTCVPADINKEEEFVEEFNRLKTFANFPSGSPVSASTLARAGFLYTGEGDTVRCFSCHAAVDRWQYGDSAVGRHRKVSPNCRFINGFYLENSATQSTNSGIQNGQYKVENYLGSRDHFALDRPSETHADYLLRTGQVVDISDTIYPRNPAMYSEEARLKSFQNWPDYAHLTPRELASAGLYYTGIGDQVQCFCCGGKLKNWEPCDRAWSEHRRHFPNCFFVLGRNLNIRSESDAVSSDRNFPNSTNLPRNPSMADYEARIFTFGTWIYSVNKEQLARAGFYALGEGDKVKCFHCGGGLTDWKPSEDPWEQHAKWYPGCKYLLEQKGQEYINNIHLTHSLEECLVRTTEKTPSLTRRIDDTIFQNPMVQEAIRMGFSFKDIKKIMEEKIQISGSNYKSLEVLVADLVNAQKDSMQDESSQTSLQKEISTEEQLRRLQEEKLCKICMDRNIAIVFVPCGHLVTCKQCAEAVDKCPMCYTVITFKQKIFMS

In the case of `Cn1ccnc1C(=O)c1ccc(NC(=O)C(=O)N[C@H](CO)Cc2ccccc2)cc1` [B3, (S)-N1-(1-hydroxy-3-phenylpropan-2-yl)-N2-(4-(1-methyl-1H-imidazole-2-carbonyl)phenyl)oxalamide], the cell death result in experiment [1] is recorded as “dose-dependent death”. In addition, the “number of cells positive for TUNEL staining” value in experiment [2] is listed as “significant increase”. Besides, the “direct binding to Bcl-2” value in experiment [3] is “binds with high affinity”. For the same molecule, in experiment [4] (20 uM, 24 hrs), the XIAP levels entry is “decrease” and the “cleavage of early apoptotic marker Caspase 9” value was “increase”. In experiment [4] (10, 20, 30 μM B3, 24 hours), the MDM2 levels result is given as “reduction”, the XIAP levels entry is “reduction”, the “cPARP or caspase3” value is given as “elevation” and the p53 levels result is reported as “elevation”. Moreover, in experiment [5], the MDM2 levels result is “reduction”, the XIAP levels result is on record as “reduction”, the “cPARP or caspase3” value was “elevation” and the p53 levels entry was “elevation”. In addition, in experiment [6], the “Ubiquitylation of p53” value is “inhibit”. In experiment [7], the “p53 Ubiquitylation levels” value is recorded as “no effect”. Also, in experiment [8], the “p53 Ubiquitylation by XIAP” value was “dose-dependent inhibition”.
